From patent publication US20230255979A1, “METHODS OF TREATING ACUTE RESPIRATORY DISORDERS” (Bristol-Myers Squibb Company, priority 2020, published 2023)
“Also recorded” adds a separate entry of the source.

Key:
macrophages = assay: Cytokine production in LPS-stimulated macrophages; type: cell-based, human; conditions: compound 4 h or 24 h
Method: (§1) For Macrophages: monocytes were differentiated into macrophages by stimulation with 50 ng/ml of MCS-F for 5 days followed by treatment with 50 ng/ml Interferon gamma for ˜16 hours. Macrophages were then plated, allowed to acclimate for 24 hours. […] All cells were cultured at 37° C. with 5% CO2 in a humidified incubator. Supernatants were collected for further analysis. Cytokine and chemokine analysis was performed in the supernatants using Magpix magnetic beads.

whole blood = assay: Pharmacodynamic assessment in MAD study, ex vivo LPS stimulation of whole blood (TruCulture); parameters: species or system human; conditions: healthy volunteers, 150 mg, individual level data
Method: The study consisted of escalating multiple doses in sequential groups. Thirty-seven subjects were enrolled into 5 dose level cohorts (10, 30, 60, 120, and 150 mg).
Each subject participated in a screening phase, a treatment phase (included baseline). Eligible subjects were admitted to the study site on Day −1 and resided at the study site from Day −1 to Day 17. The first dose of study drug was administered on Day 1, under fasted conditions, according to the randomization schedule. The same QD dose was administered for the remainder of the planned treatment schedule (Day 2 to Day 14, inclusive). For each dose level cohort in Part 2, blood samples were collected on Day 1 predose (0-hour), and predose (0-hour) on Days 2, 3, 5, 8, 11, and 14. Blood samples were also collected at approximately the same time of the day as the Days 1 to 14 samples on Days 15, 17, 21, and 28. Subjects were discharged from the study site on Day 17 upon satisfactory safety review and completion of the required study procedures. For all dose level cohorts, subjects returned to the study site for outpatient visits on Day 21 and Day 28. There were no early terminations.
Ex vivo stimulation was performed in whole blood using the TruCulture® assay system (Myriad RBM, Austin, Tex.). […] Briefly, blood (1 ml) was drawn into the LPS-containing TruCulture tubes from each subject on the days listed in the study protocol. The truculture tubes were placed in a 37° C. block thermostat for 24±1 hrs and then frozen at −70° C. Media mixed with plasma was analyzed for TNF-α and other cytokine/chemokine levels. TNF-α inhibition in ex vivo LPS-stimulated blood was measured as percent change in TNF-α levels from baseline. Percent change in other cytokines/chemokines in the ex vivo stimulation assay was also measured with respect to their baseline levels.

PBMCs = assay: RT-PCR gene expression of cytokines and chemokines in LPS-treated PBMCs from HV; conditions: LPS 1.5 hrs then compound 1.5 hrs
[1] = tested on: peripheral blood mononuclear cell (PBMCs); assay: Cytokine assessment in PBMCs pretreated with compound, then LPS or SEB/IL-2 treatment; type: cell-based, human; conditions: 1 h pretreatment
monocytes = assay: Cytokine production in LPS-stimulated monocytes; type: cell-based, human
Method: In addition, PBMCs were isolated from buffy coat using Ficoll gradient method and were used for monocyte enrichment without CD16 depletion with the Stem Cell technologies kit (Cat #19058). […] All cells were cultured at 37° C. with 5% CO2 in a humidified incubator.
For Monocytes: PBMCs were isolated from buffy coat using Ficoll gradient method and were used for monocyte enrichment without CD16 depletion with the Stem Cell technologies kit (Cat #19058). […] All cells were cultured at 37° C. with 5% CO2 in a humidified incubator. Supernatant was collected for cytokine and chemokine analysis.
as §1

## CCOCc1cnc(Cl)nc1Oc1ccc2c(ccc3sc4c(c32)NC[C@@H](C)NC4=O)n1 [Compound I-82]
macrophages; LPS 3 or 23 hours, FIG. 4A
  inhibition of IL-6 in macrophages: dose-dependent inhibition; also recorded: inhibits
macrophages; LPS 3 or 23 hours, FIG. 4B
  inhibition of IL-1β in macrophages: dose-dependent inhibition; also recorded: inhibits
macrophages; LPS (100 ng/ml) 3 or 23 hours, FIG. 3
  inhibition of TNF-α in macrophages: dose-dependent inhibition; also recorded: inhibits
Whole blood; FIG. 8B
  inhibition of IL-6 following ex vivo LPS stimulation: inhibition of IL-6
Whole blood; FIG. 8C
  inhibition of MIP-1A following ex vivo LPS stimulation: inhibition of MIP-1A
Whole blood; FIG. 8D
  inhibition of MIP-1B following ex vivo LPS stimulation: inhibition of MIP-1B
PBMCs; FIG. 5A
  inhibition of gene expression of MCP-1: inhibition of gene expression; also recorded: inhibits gene expression
PBMCs; FIG. 5B
  inhibition of gene expression of IL-6: inhibition of gene expression; also recorded: inhibits gene expression
PBMCs; FIG. 5C
  inhibition of gene expression of IL-1β: inhibition of gene expression; also recorded: inhibits gene expression
PBMCs; FIG. 6A
  inhibition of gene expression of TNF-α: inhibits gene expression
PBMCs; FIG. 6B
  inhibition of gene expression of GM-CSF: inhibition of gene expression; also recorded: inhibits gene expression
PBMCs; FIG. 6C
  inhibition of gene expression of ZFP36 (TTP): does not inhibit gene expression
[1]; LPS stimulation 24 hours, FIG. 1A
  inhibition of TNF-α in PBMCs: dose dependent inhibition; also recorded: decreased in a dose-dependent manner
[1]; SEB/IL-2 treatment 3 days, FIG. 1B
  inhibition of TNF-α in PBMCs: dose dependent inhibition; also recorded: decreased in a dose-dependent manner
monocytes; LPS stimulation 23 hours, FIG. 2
  inhibition of TNF-α in monocytes: dose dependent inhibition; also recorded: decreased in a dose-dependent manner
monocytes; compound 4 h or 24 h, LPS 3 or 23 hours, FIG. 3
  inhibition of TNF-α in monocytes: dose-dependent inhibition; also recorded: inhibits
monocytes; compound 4 h or 24 h, LPS 3 or 23 hours, FIG. 4A
  inhibition of IL-6 in monocytes: dose-dependent inhibition; also recorded: inhibits
monocytes; compound 4 h or 24 h, LPS 3 or 23 hours, FIG. 4B
  inhibition of IL-1β in monocytes: dose-dependent inhibition; also recorded: inhibits
